A word on the melting point: it is the temperature, or range, at which the solid turns liquid. The term IC50 denotes the midpoint of a concentration-inhibition curve.

Where “and” joins values, the source holds several entries; their conditions need not be identical. Equal entries are not always repeated. Structures can show the parent of a compound that is named as a salt. Where only a bound is given, the exact number is not on record here.

The target of one data set is T1, Top1 (Homo sapiens, UniProt P11387).
T1 sequence (P11387 1-765): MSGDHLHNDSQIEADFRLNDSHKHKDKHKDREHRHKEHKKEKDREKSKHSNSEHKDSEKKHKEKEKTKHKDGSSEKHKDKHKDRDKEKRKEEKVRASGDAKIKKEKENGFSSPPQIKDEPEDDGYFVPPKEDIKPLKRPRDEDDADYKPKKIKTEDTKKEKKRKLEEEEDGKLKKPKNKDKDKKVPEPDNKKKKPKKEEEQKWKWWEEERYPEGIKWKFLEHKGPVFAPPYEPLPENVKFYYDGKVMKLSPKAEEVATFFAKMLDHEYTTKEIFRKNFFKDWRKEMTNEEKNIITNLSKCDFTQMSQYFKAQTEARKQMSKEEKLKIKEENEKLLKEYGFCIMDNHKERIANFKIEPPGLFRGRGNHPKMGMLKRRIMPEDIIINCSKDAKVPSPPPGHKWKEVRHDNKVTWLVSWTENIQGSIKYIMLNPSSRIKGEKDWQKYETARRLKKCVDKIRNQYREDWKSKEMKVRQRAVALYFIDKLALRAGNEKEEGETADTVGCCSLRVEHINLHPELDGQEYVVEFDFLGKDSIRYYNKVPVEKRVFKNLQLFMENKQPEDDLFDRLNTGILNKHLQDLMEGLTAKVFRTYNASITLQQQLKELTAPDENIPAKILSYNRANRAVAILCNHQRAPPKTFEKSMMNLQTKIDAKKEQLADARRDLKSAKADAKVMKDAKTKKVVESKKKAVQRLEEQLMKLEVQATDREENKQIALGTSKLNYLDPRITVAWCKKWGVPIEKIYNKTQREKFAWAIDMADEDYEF
Put plainly: Top1-mediated DNA cleavage assay. The class given is biochemical. The following applies: score based on the activity of 1 μM 1 (camptothecin); tested at 0.1, 1, 10, 100 μM. On the procedure: Approximately 2 nM radiolabeled DNA substrate was incubated with recombinant Top in 20 μL of reaction buffer [10 mM Tris-HCl (pH 7.5), 50 mM KCl, 5 mM MgCl2, 0.1 mM EDTA, and 15 μg/mL BSA] at 25° C. for 20 min in the presence of various concentrations of test compounds. […] Aliquots of each reaction mixture were subjected to 20% denaturing PAGE.
The Top1-mediated DNA cleavage assay was used to measure Top1 inhibitory activity. This assay measures the ability of the compound to stabilize DNA cleavage in a 3′-[^32P]-labeled DNA substrate via Top1 poisoning.

In a further data set the target is T2, recombinant human TDP2 (Homo sapiens, UniProt O95551).
T2 sequence (O95551 1-362): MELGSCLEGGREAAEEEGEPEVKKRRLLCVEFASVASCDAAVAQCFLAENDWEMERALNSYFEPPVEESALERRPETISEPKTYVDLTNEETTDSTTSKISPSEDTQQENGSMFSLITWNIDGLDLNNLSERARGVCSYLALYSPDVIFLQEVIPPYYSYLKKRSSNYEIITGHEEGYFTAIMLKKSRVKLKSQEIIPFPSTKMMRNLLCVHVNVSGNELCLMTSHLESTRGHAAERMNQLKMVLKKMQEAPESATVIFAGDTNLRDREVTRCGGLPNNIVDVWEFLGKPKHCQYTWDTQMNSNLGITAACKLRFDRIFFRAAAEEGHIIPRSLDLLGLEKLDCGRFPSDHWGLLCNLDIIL
The data set can be described thus: Recombinant TDP2 assay. The format is biochemical. The following applies: recombinant human TDP2, gel-based; read-out: TDP2: IC50 values for the inhibition of TDP2. The source says:
Reactions were terminated and treated similarly to recombinant TDP1 reactions.
TDP2, as opposed to TDP1, cleaves the phosphotyrosyl linkage in 5′-phosphotyrosyl-DNA oligonucleotides.

The subject of data set [1] is 60 human cancer cell lines. Put plainly: NCI-60 single-dose cytotoxicity assay. The class given is cell-based. The settings on record: mean-graph midpoint of percent growth of 60 human cancer cell lines, 10 μM drug, 48 h, relative to no-drug control and time zero. As for the experimental part: The new indenoisoquinolines were evaluated for cancer cell growth inhibitory activities. The National Cancer Institute's NCI-60 cytotoxicity assay measures the ability of test agents to inhibit the growth of approximately 60 different cancer cell lines. In the initial single-dose assay, cells are treated with a 10 μM dose of test agent. The growth of treated cells versus untreated cells is then compared. If a test agent induces a sufficiently low mean growth percent, it is promoted to five-dose testing to determine a mean graph midpoint (MGM) GI50 value. In five-dose testing, cells are treated with test agent concentrations ranging from 10^−8 to 10^−4 M. The concentration required to achieve 50% growth inhibition in a particular cell line is calculated. In situations in which this value is greater than 100 μM or less than 0.01 μM, it is recorded as 100 μM and 0.01 μM, respectively. The values for each of the tested cell lines are averaged to obtain a mean graph midpoint (MGM) GI50 value. MGM GI50 values are often, but not always, determined from two separate rounds (Table 1).

A further data set deals with recombinant TDP1 (Homo sapiens, UniProt Q9NUW8). Put plainly: Recombinant TDP1 assay. The format is biochemical. The following applies: recombinant TDP1, gel-based; read-out: TDP1: IC50 values for the inhibition of TDP1. On the procedure:
A 5′-[^32P]-labeled single-stranded DNA oligonucleotide containing a 3′-phosphotyrosine (N14Y) was incubated at 1 nM with 10 pM recombinant TDP1 in the absence or presence of inhibitor for 15 min at room temperature in the LMP1 assay buffer containing 50 mM Tris HCl, pH 7.5, 80 mM KCl, 2 mM EDTA, 1 mM DTT, 40 μg/mL BSA, and 0.01% Tween-20^18. […] Gels were dried and exposed to a PhosphorImager screen (GE Healthcare). Gel images were scanned using a Typhoon 8600 (GE Healthcare), and densitometry analyses were performed using ImageQuant software (GE Healthcare).
TDP1 is involved in the repair of DNA damage that results from the action of Top1 poisons, which induce the formation of DNA-protein adducts that include a 3′-phosphotyrosyl linkage. The TDP1 inhibition assay assesses a test agent's ability to inhibit the enzyme-induced cleavage of a 5′-^32P, 3′-phosphotyrosyl-DNA oligonucleotide, called N14Y. Cleavage of the phosphodiester bond between the 3′-phosphate and tyrosine releases […] from the DNA oligonucleotide. The enzyme-processed DNA oligonucleotide lacking its 3′-phosphotyrosyl moiety is designated N14P. A schematic representation of the assay and a representative gel are shown in FIG. 2, and the TDP1 screening results are listed in Table 1.

recombinant TDP1, sequence (Q9NUW8 whole entry, species assumed): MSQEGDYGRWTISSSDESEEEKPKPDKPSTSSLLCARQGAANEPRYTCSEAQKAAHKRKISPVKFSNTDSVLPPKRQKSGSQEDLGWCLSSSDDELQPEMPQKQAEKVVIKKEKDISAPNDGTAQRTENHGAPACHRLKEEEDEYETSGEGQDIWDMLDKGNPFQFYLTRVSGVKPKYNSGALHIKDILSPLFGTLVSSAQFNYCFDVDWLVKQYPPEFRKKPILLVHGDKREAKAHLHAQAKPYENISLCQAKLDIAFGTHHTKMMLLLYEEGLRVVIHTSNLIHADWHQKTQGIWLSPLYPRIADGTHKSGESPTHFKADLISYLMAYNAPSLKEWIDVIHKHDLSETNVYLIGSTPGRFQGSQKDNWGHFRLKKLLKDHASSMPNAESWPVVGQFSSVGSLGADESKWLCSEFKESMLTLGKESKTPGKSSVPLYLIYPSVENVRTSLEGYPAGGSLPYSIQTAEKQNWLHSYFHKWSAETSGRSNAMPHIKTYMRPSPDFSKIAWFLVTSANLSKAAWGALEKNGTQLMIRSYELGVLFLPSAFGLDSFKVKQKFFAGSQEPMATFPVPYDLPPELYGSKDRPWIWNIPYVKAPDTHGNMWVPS

In turn, `NCCCn1c2c(c3ncccc3c1=O)C(=O)c1ccccc1-2` (as salt: hydrochloride) [Compound 57, 6-(3-Aminopropyl)-1-aza-5,6-dihydro-5,11-dioxo-indeno[1,2-c]isoquinoline Dihydrochloride] yielded a melting point of 226 to 228 °C.
Still for that read-out and setting: the same measure for `NCCCn1c2c(c3cnccc3c1=O)C(=O)c1ccccc1-2` (as salt: hydrochloride) [Compound 58, 6-(3-Aminopropyl)-2-aza-5,6-dihydro-5,11-dioxo-indeno[1,2-c]isoquinoline Dihydrochloride]: 272 to 274 °C.
Still for that read-out and setting: the same measure for `NCCCn1c2c(c3ccncc3c1=O)C(=O)c1ccccc1-2` (as salt: hydrochloride) [Compound 59, 6-(3-Aminopropyl)-3-aza-5,6-dihydro-5,11-dioxo-indeno[1,2-c]isoquinoline Dihydrochloride]: 253 to 254 °C.
The same measure, in the same setting: for `NCCCn1c2c(c3cccnc3c1=O)C(=O)c1ccccc1-2` (as salt: hydrochloride) [Compound 60, 6-(3-Aminopropyl)-4-aza-5,6-dihydro-5,11-dioxo-indeno[1,2-c]isoquinoline Dihydrochloride] the value was 284 to 286 °C.
`O=C1c2ccccc2-c2c1c1ncccc1c(=O)n2CCCN1CCOCC1` [Compound 36, 1-Aza-5,6-dihydro-6-(3-morpholinopropyl)-5,11-dioxo-indeno[1,2-c]isoquinoline] showed a melting point of 223 to 224 °C. Besides, on Top1, the “Top 1: compound-induced DNA cleavage due to Top1 poisoning” value (“Top 1: compound-induced DNA cleavage due” for short) was “++ (++, between 50 and 75% activity)”. In addition, on recombinant human TDP2, the IC50 was greater than 111 µM. The “Mean Growth %” value in data set [1] stood at 87.9%. Moreover, the IC50 on recombinant TDP1 is greater than 111 µM.
`O=C1c2ccccc2-c2c1c1cnccc1c(=O)n2CCCN1CCOCC1` [Compound 37, 2-Aza-5,6-dihydro-6-(3-morpholinopropyl)-5,11-dioxo-indeno[1,2-c]isoquinoline] registered a melting point of 218 to 219 °C. In addition, the “Top 1: compound-induced DNA cleavage due” value on Top1 is “+++ (+++, between 75 and 95% activity)”. For the same compound, the IC50 at recombinant human TDP2 is greater than 111 µM. Also, the IC50 at recombinant TDP1 is greater than 111 µM.
Take `O=C1c2ccccc2-c2c1c1ccncc1c(=O)n2CCCN1CCOCC1` [Compound 38, 3-Aza-5,6-dihydro-6-(3-morpholinopropyl)-5,11-dioxo-11H-indeno[1,2-c]isoquinoline]: the melting point lay in the range of 210 to 211 °C. Besides, the “Top 1: compound-induced DNA cleavage due” value on Top1 was “++ (++, between 50 and 75% activity)”. In addition, on recombinant human TDP2, the IC50 is greater than 111 µM. The IC50 on recombinant TDP1 is greater than 111 µM.
Compound `O=C1c2ccccc2-c2c1c1cccnc1c(=O)n2CCCN1CCOCC1` [Compound 39, 4-Aza-5,6-dihydro-6-(3-morpholinopropyl)-5,11-dioxo-indeno[1,2-c]isoquinoline] gave a melting point of 177 to 178 °C. The “Top 1: compound-induced DNA cleavage due” value on Top1 was “+++ (+++, between 75 and 95% activity)”. For the same compound, the IC50 on recombinant human TDP2 was greater than 111 µM. The “Mean Growth %” value in data set [1] was 42.9%. For the same compound, the IC50 at recombinant TDP1 is greater than 111 µM.
With `O=C1c2ccccc2-c2c1c1ncccc1c(=O)n2CCCn1ccnc1` [Compound 40, 1-Aza-5,6-dihydro-6-(3-(1H-imidazol-1-yl)propyl)-5,11-dioxo-indeno[1,2-c]isoquinoline], the melting point lay within 242 to 243 °C. At Top1, the “Top 1: compound-induced DNA cleavage due” value is “++ (++, between 50 and 75% activity)”. Moreover, on recombinant human TDP2, the IC50 is greater than 111 µM. For the same compound, the “Mean Growth %” value in data set [1] turned out to be 83.6%. Moreover, the IC50 on recombinant TDP1 was greater than 111 µM.
The compound `O=C1c2ccccc2-c2c1c1cnccc1c(=O)n2CCCn1ccnc1` [Compound 41, 2-Aza-5,6-dihydro-6-(3-(1H-imidazol-1-yl)propyl)-5,11-dioxo-indeno[1,2-c]isoquinoline] returned a melting point of 274 to 275 °C. The “Top 1: compound-induced DNA cleavage due” value on Top1 was “++ (++, between 50 and 75% activity)”. The IC50 on recombinant human TDP2 is greater than 111 µM. Moreover, the “Mean Growth %” value in data set [1] worked out at 67.8%. For the same compound, on recombinant TDP1, the IC50 is greater than 111 µM.
`O=C1c2ccccc2-c2c1c1ccncc1c(=O)n2CCCn1ccnc1` [Compound 42, 3-Aza-5,6-dihydro-6-(3-(1H-imidazol-1-yl)propyl)-5,11-dioxo-11H-indeno[1,2-c]isoquinoline] yielded a melting point of 251 to 252 °C. For the same compound, the “Top 1: compound-induced DNA cleavage due” value on Top1 is “+ (+, between 20 and 50%activity)”. On recombinant human TDP2, the IC50 was greater than 111 µM. In addition, the “Mean Growth %” value in data set [1] is reported as 47.5%. The IC50 on recombinant TDP1 was greater than 111 µM.
On to `O=C1c2ccccc2-c2c1c1ccncc1c(=O)n2C[C@H](O)CO` [Compound 50, (2′S)-3-Aza-5,6-dihydro-6-(2′,3′-dihydroxypropyl)-5,11-dioxo-indeno[1,2-c]isoquinoline], for which the melting point fell in the range of 237 to 238 °C. The “Top 1: compound-induced DNA cleavage due” value at Top1 was “++ (++, between 50 and 75% activity)”.
As for `NCCCn1c2c(c3ncccc3c1=O)C(=O)c1ccccc1-2` [Compound 57, 6-(3-Aminopropyl)-1-aza-5,6-dihydro-5,11-dioxo-indeno[1,2-c]isoquinoline Dihydrochloride], the “Top 1: compound-induced DNA cleavage due” value at Top1 is “++ (++, between 50 and 75% activity)”. Moreover, the IC50 at recombinant human TDP2 is greater than 111 µM; at recombinant TDP1, 43 µM and 63 µM.
Consider `NCCCn1c2c(c3cnccc3c1=O)C(=O)c1ccccc1-2` [Compound 58, 6-(3-Aminopropyl)-2-aza-5,6-dihydro-5,11-dioxo-indeno[1,2-c]isoquinoline Dihydrochloride], for which the “Top 1: compound-induced DNA cleavage due” value at Top1 is “++ (++, between 50 and 75% activity)”. In addition, the IC50 at recombinant human TDP2 is roughly 111 µM; on recombinant TDP1, 19 µM and 30 µM.
Take `NCCCn1c2c(c3ccncc3c1=O)C(=O)c1ccccc1-2` [Compound 59, 6-(3-Aminopropyl)-3-aza-5,6-dihydro-5,11-dioxo-indeno[1,2-c]isoquinoline Dihydrochloride]: the IC50 on recombinant human TDP2 is roughly 111 µM; at recombinant TDP1, 30 µM and 48 µM.

The values above are taken from patent US10759795B2, “Aza-A-ring indenoisoquinoline topoisomerase I poisons” (Purdue Research Foundation, priority 2016, dated 2020).
